From paper PMC5553892, “A fourth subtype of retinoic acid receptor-related orphan receptors is activated by oxidized all-trans retinoic acid in medaka (Oryzias latipes)” (Zoological Letters, 2017)

Key:
Type in all cases: cell-based
RORd1 [1] = molecular target: T1, RORd1 (Oryzias latipes, UniProt H2LFF5); assay: Gal4-RORd1 LBD luciferase reporter assay in stable HEK293 cells (weak agonist, […], EC50 not calculable)
T1 construct: gene rorca
T1 sequence (H2LFF5 98-473): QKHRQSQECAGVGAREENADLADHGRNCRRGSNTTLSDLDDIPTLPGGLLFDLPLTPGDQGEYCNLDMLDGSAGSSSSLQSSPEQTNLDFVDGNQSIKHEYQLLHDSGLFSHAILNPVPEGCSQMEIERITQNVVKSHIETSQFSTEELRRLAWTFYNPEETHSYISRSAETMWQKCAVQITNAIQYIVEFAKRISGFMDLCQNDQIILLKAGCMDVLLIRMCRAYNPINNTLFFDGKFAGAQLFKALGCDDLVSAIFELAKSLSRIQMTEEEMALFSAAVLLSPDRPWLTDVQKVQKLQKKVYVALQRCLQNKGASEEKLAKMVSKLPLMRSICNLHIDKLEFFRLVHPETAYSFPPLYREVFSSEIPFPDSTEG

RORd1 [2] = molecular target: T1, RORd1; assay: Gal4-RORd1 LBD luciferase reporter assay in stable HEK293 cells (agonist)
RORd1 [3] = molecular target: T1, RORd1; assay: Gal4-RORd1 LBD luciferase reporter assay in stable HEK293 cells (weak agonist, […], EC50 not calculable); remark: listed apart in the source

SMILES | EC50 (RORd1 [2]) [nM] | other results
CC1=C(/C=C/C(C)=C/C=C/C(C)=C/C(=O)O)C(C)(C)CCC1 [ATRA, all-trans retinoic acid] | – | EC50 (RORd1 [1]): > 10000 nM
CC1=C(/C=C/C(C)=C/C=C/C(C)=C/C(=O)O)C(C)(C)CCC1O (stereo not drawn) [4OH-ATRA, all-trans 4-hydroxyretinoic acid] | 539 ± 97.3 | –
CC(/C=C/C12OC1(C)CCCC2(C)C)=C\C=C\C(C)=C\C(=O)O (stereo not drawn) [5,6E–ATRA, all-trans 5,6-epoxyretinoic acid] | – | EC50 (RORd1 [3]): > 10000 nM
CC1=C(/C=C/C(C)=C/C=C/C(C)=C/C(=O)O)C(C)(C)CCC1=O [4 K–ATRA, all-trans 4-ketoretinoic acid] | 737 ± 47.3 | –
